According to PubChem BioAssay AID330 (DTP/NCI, 2004):
Where “and” joins values, the source holds several entries; their conditions need not be identical. Identical values can stand only once. Inconclusive results and toxic doses are left out. The calls were made as follows: active = survival T/C of 150% or more; inactive = T/C below 125% in these data.

Tested on: P388 leukemia ip, CD2F1 mice, survival T/C
Assay: NCI In Vivo Anticancer Drug Screen. Data for tumor model P388 Leukemia (intraperitoneal) in CD2F1 (CDF1) mice
Conditions: endpoint: median survival time, higher = longer survival
Outline: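 Mice carrying the transplanted tumor received test compound or vehicle. Survival was recorded in each group, and the value is the treated-group measurement divided by that of the vehicle-treated control group.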

[1] = dose: 60.0 mg/kg/injection, schedule: Q01DX005 (ip), vehicle: Klucel (hydroxypropylcellulose) (HPC)
[2] = dose: 120.0 mg/kg/injection, schedule: Q01DX005 (ip), vehicle: Klucel (hydroxypropylcellulose) (HPC)
[3] = dose: 240.0 mg/kg/injection, schedule: Q01DX005 (ip), vehicle: Klucel (hydroxypropylcellulose) (HPC)
[4] = dose: 50.0 mg/kg/injection, schedule: Q01DX009 (ip), vehicle: saline with Tween-80
[5] = dose: 100.0 mg/kg/injection, schedule: Q01DX009 (ip), vehicle: saline with Tween-80
[6] = dose: 200.0 mg/kg/injection, schedule: Q01DX005 (ip), vehicle: saline with Tween-80

Measured: T/C

COCC(O)Cn1ccnc1[N+](=O)[O-] (stereo unspecified)
inactive: dose: 1.0 mg/kg/injection, schedule: Q01DX009 (ip), vehicle: saline + alcohol 100 % of control | dose: 1.0 mg/kg/injection, schedule: Q01DX009 (ip), vehicle: saline 104 % of control | dose: 2.0 mg/kg/injection, schedule: Q01DX009 (ip), vehicle: saline + alcohol 98 % of control | dose: 2.0 mg/kg/injection, schedule: Q01DX009 (ip), vehicle: saline 109 % of control | dose: 4.0 mg/kg/injection, schedule: Q01DX009 (ip), vehicle: saline 120 % of control | dose: 8.0 mg/kg/injection, schedule: Q01DX009 (ip), vehicle: saline 111 % of control | dose: 16.0 mg/kg/injection, schedule: Q01DX009 (ip), vehicle: saline 108 % of control | dose: 32.0 mg/kg/injection, schedule: Q01DX009 (ip), vehicle: saline 112 % of control | dose: 64.0 mg/kg/injection, schedule: Q01DX009 (ip), vehicle: saline + alcohol 124 % of control | dose: 64.0 mg/kg/injection, schedule: Q01DX009 (ip), vehicle: saline 102 % of control | dose: 128.0 mg/kg/injection, schedule: Q01DX009 (ip), vehicle: saline + alcohol 98 % of control | dose: 128.0 mg/kg/injection, schedule: Q01DX009 (ip), vehicle: saline 111 % of control | dose: 250.0 mg/kg/injection, schedule: Q01DX001 (ip), vehicle: saline + alcohol 97 % of control | dose: 256.0 mg/kg/injection, schedule: Q01DX009 (ip), vehicle: saline + alcohol 91 % of control | dose: 256.0 mg/kg/injection, schedule: Q01DX009 (ip), vehicle: saline 111 % of control | dose: 500.0 mg/kg/injection, schedule: Q01DX001 (ip), vehicle: saline + alcohol 100 % of control | dose: 512.0 mg/kg/injection, schedule: Q01DX009 (ip), vehicle: saline 112 % of control | dose: 600.0 mg/kg/injection, schedule: Q01DX005 (ip), vehicle: saline 114 % of control | dose: 1000.0 mg/kg/injection, schedule: Q01DX001 (ip), vehicle: saline + alcohol 102 % of control | dose: 1000.0 mg/kg/injection, schedule: Q01DX005 (ip), vehicle: saline 105 % of control | dose: 2000.0 mg/kg/injection, schedule: Q01DX001 (ip), vehicle: saline + alcohol 66 % of control

COc1ccc2c(c1)CCC1=C2CCC2(C)C1=CCS2(=O)=O (stereo unspecified)
inactive: [1] 105 % of control | [2] 90 % of control | [3] 97 % of control

CC(=O)ON=C1C=CC(=C(C#N)c2ccccc2)C=C1
inactive: [4] 104 % of control | [5] 122 % of control

CCCCCCN(CCCCCC)CC(O)c1ccc(Cl)c2ccccc12 (stereo unspecified)
inactive: dose: 50.0 mg/kg/injection, schedule: Q01DX005 (ip), vehicle: saline with Tween-80 115 % of control | dose: 100.0 mg/kg/injection, schedule: Q01DX005 (ip), vehicle: saline with Tween-80 101 % of control | [6] 92 % of control

COc1cc2c[n+](C)c3c(c2cc1OC)Cc1c-3ccc(O)c1OC
inactive: dose: 100.0 mg/kg/injection, schedule: Q01DX001 (ip), vehicle: Klucel (hydroxypropylcellulose) (HPC) 116 % of control

CC[CH2][Sn]([F])([F])[CH2]CC
inactive: dose: 0.78 mg/kg/injection, schedule: Q04DX003 (ip), vehicle: saline 105 % of control | dose: 1.56 mg/kg/injection, schedule: Q04DX003 (ip), vehicle: saline 100 % of control and 114 % of control | dose: 3.12 mg/kg/injection, schedule: Q04DX003 (ip), vehicle: saline 102 % of control | dose: 6.25 mg/kg/injection, schedule: Q04DX003 (ip), vehicle: saline 105 % of control | dose: 12.5 mg/kg/injection, schedule: Q04DX003 (ip), vehicle: saline 114 % of control

Nc1cc(F)ccc1CC(=O)O
inactive: dose: 60.0 mg/kg/injection, schedule: Q01DX005 (ip), vehicle: saline 103 % of control | dose: 120.0 mg/kg/injection, schedule: Q01DX005 (ip), vehicle: saline 99 % of control | dose: 240.0 mg/kg/injection, schedule: Q01DX005 (ip), vehicle: saline 99 % of control

O=C(O)c1cc(C(=O)O)cc([N+](=O)[O-])c1
inactive: dose: 25.0 mg/kg/injection, schedule: Q04DX003 (ip), vehicle: saline with Tween-80 100 % of control | dose: 50.0 mg/kg/injection, schedule: Q04DX003 (ip), vehicle: saline with Tween-80 100 % of control | dose: 100.0 mg/kg/injection, schedule: Q04DX003 (ip), vehicle: saline with Tween-80 100 % of control

O=[N+]([O-])c1cc2c(ccc3cc(Br)ccc32)o1
inactive: dose: 50.0 mg/kg/injection, schedule: Q01DX005 (ip), vehicle: Klucel (hydroxypropylcellulose) (HPC) 87 % of control | dose: 100.0 mg/kg/injection, schedule: Q01DX005 (ip), vehicle: Klucel (hydroxypropylcellulose) (HPC) 92 % of control | dose: 200.0 mg/kg/injection, schedule: Q01DX005 (ip), vehicle: Klucel (hydroxypropylcellulose) (HPC) 92 % of control

CCN(CC)CC[n+]1ccc2c(C)c3[nH]c4ccccc4c3c(C)c2c1
inactive: dose: 0.63 mg/kg/injection, schedule: Q04DX002 (ip), vehicle: water 110 % of control | dose: 0.78 mg/kg/injection, schedule: Q04DX003 (ip), vehicle: water 106 % of control | dose: 1.25 mg/kg/injection, schedule: Q04DX002 (ip), vehicle: water 115 % of control | dose: 1.56 mg/kg/injection, schedule: Q04DX003 (ip), vehicle: water 107 % of control and 120 % of control | dose: 2.5 mg/kg/injection, schedule: Q04DX002 (ip), vehicle: water 122 % of control | dose: 3.12 mg/kg/injection, schedule: Q04DX003 (ip), vehicle: water 123 % of control | dose: 6.25 mg/kg/injection, schedule: Q04DX003 (ip), vehicle: water 124 % of control | dose: 12.5 mg/kg/injection, schedule: Q04DX003 (ip), vehicle: water 124 % of control

[N-]=[N+]=Nc1ccccc1C(=O)NCCNC(=O)c1ccccc1N=[N+]=[N-]
inactive: dose: 6.25 mg/kg/injection, schedule: Q01DX005 (ip), vehicle: saline with Tween-80 94 % of control | dose: 12.5 mg/kg/injection, schedule: Q01DX005 (ip), vehicle: saline with Tween-80 91 % of control | [6] 87 % of control

CC(=O)c1c(O)c(C)c(O)c2c1OC1=Cc3c(c(C)nn3-c3ccccc3)C(=O)C12C (stereo unspecified)
inactive: dose: 6.25 mg/kg/injection, schedule: Q01DX009 (ip), vehicle: gum acacia 104 % of control and 108 % of control | dose: 12.5 mg/kg/injection, schedule: Q01DX009 (ip), vehicle: gum acacia 103 % of control and 105 % of control | dose: 25.0 mg/kg/injection, schedule: Q01DX009 (ip), vehicle: gum acacia 101 % of control and 105 % of control | dose: 50.0 mg/kg/injection, schedule: Q01DX009 (ip), vehicle: gum acacia 98 % of control and 101 % of control | dose: 100.0 mg/kg/injection, schedule: Q01DX009 (ip), vehicle: gum acacia 99 % of control and 93 % of control | dose: 200.0 mg/kg/injection, schedule: Q01DX009 (ip), vehicle: gum acacia 86 % of control and 90 % of control

COc1ccc([Si](C)(C)CNCCSS(=O)(=O)O)cc1
inactive: [4] 90 % of control | [5] 95 % of control | dose: 200.0 mg/kg/injection, schedule: Q01DX009 (ip), vehicle: saline with Tween-80 90 % of control

C=C(C)C1(n2[nH]c(=O)n(-c3ccccc3)c2=O)CCC(C)=CC1=O (stereo unspecified)
inactive: dose: 100.0 mg/kg/injection, schedule: Q01DX001 (ip), vehicle: saline with Tween-80 102 % of control | dose: 200.0 mg/kg/injection, schedule: Q01DX001 (ip), vehicle: saline with Tween-80 95 % of control | dose: 400.0 mg/kg/injection, schedule: Q01DX001 (ip), vehicle: saline with Tween-80 87 % of control

C=CCOc1ccccc1/C=N/[N+](C)(C)C
inactive: dose: 12.5 mg/kg/injection, schedule: Q01DX009 (ip), vehicle: saline 100 % of control | dose: 25.0 mg/kg/injection, schedule: Q01DX009 (ip), vehicle: saline 110 % of control

Oc1ccc(C(c2cc3c(cc2O)OCO3)N2CCN(C(c3ccc(O)cc3)c3cc4c(cc3O)OCO4)CC2)cc1 (stereo unspecified)
inactive: [1] 104 % of control | [2] 103 % of control | [3] 100 % of control

CSC(Cl)=NC(=O)C(=O)N=C(Cl)SC
inactive: [4] 96 % of control | [5] 89 % of control

Cc1cc(NCCN(C(C)C)C(C)C)nc(/N=C(\N)Nc2ccc(Cl)c(C(F)(F)F)c2)n1
inactive: dose: 10.0 mg/kg/injection, schedule: Q04DX003 (ip), vehicle: Klucel (hydroxypropylcellulose) (HPC) 107 % of control and 123 % of control | dose: 20.0 mg/kg/injection, schedule: Q04DX003 (ip), vehicle: Klucel (hydroxypropylcellulose) (HPC) 123 % of control
